Experimental data: PubChem BioAssay (NCI)
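Five concentrations, 48 hours, 96-well plates. Here, GI50 denotes the concentration required for 50% inhibition of growth. TGI denotes the concentration required for complete inhibition of growth.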

System: A549 NSCLC
Assay: DTP human tumour cell line panel, 48 h

SMILES	GI50 [µM]	TGI [µM]
Cc1ccc2c(n1)C(=O)c1[nH]c3ccccc3c1C2=O	1.61	4.37
O=C(OC(=O)n1ccc2ccccc21)n1ccc2ccccc21	–	> 100
C=CC(Br)(CBr)CCC(Cl)C(C)C (stereo not drawn)	–	18
Cc1nc(N)sc1-c1ccnc(Nc2ccc(N3CCOCC3)cc2)n1	1.13	> 100
CC(=O)Oc1cccc2c(/C=N/NC(N)=S)ncc(C)c12	–	25.6
CC(=O)OC1CCC2(C)C3CCC4(C)C(c5ccc(=O)oc5)CC5OC54C3CCC2(O)C1 (stereo not drawn)	–	2.15
Cc1cc(=O)[nH]c(NN2C(Cl)C(=O)C2c2cccc(O)c2)n1 (stereo not drawn)	–	> 100
Cc1ccc(S(=O)(=O)Oc2cc(-c3ccccc3)nc3ccccc23)cc1	–	> 78.4
NNC(N)Nc1ccccc1 (stereo not drawn)	–	> 100
CC1CC=CC(O)C1 (stereo not drawn)	–	> 100
O=NN(CCCl)C(=O)NC1CCSc2ccccc21 (stereo not drawn)	–	> 100

System: CAKI-1 renal
Assay: DTP human tumour cell line panel, 48 h

SMILES	GI50 [µM]	TGI [µM]
O=[N+]([O-])c1ccc(C=C2C(Cl)=C(Cl)C(Cl)=C2Cl)cc1	1.11	3.4
COc1ccccc1C1C(C(=O)O)=C(CO)Oc2cc3c(cc21)OCO3 (stereo not drawn)	–	> 100
Cc1ccc2c(n1)C(=O)c1[nH]c3ccccc3c1C2=O	2.37	> 100
O=C(OC(=O)n1ccc2ccccc21)n1ccc2ccccc21	–	> 100
C=CC(Br)(CBr)CCC(Cl)C(C)C (stereo not drawn)	–	7.52
Cc1nc(N)sc1-c1ccnc(Nc2ccc(N3CCOCC3)cc2)n1	0.517	3.05
CC(=O)Oc1cccc2c(/C=N/NC(N)=S)ncc(C)c12	–	15.6
CC(=O)OC1CCC2(C)C3CCC4(C)C(c5ccc(=O)oc5)CC5OC54C3CCC2(O)C1 (stereo not drawn)	–	2.23
NNC(N)Nc1ccccc1 (stereo not drawn)	–	> 100
c1ccc(N=C2SC(=NC3CCCCC3)N(C3CCCCC3)C2=Nc2ccccc2)cc1	–	> 100
O=NN(CCCl)C(=O)NC1CCSc2ccccc21 (stereo not drawn)	–	> 100

System: DMS 273 small cell lung
Assay: DTP human tumour cell line panel, 48 h

SMILES	TGI [µM]
COc1ccccc1C1C(C(=O)O)=C(CO)Oc2cc3c(cc21)OCO3 (stereo not drawn)	> 100
O=C(OC(=O)n1ccc2ccccc21)n1ccc2ccccc21	> 100
CC(=O)OC1CCC2(C)C3CCC4(C)C(c5ccc(=O)oc5)CC5OC54C3CCC2(O)C1 (stereo not drawn)	6
Cc1cc(=O)[nH]c(NN2C(Cl)C(=O)C2c2cccc(O)c2)n1 (stereo not drawn)	> 100
Cc1ccc(S(=O)(=O)Oc2cc(-c3ccccc3)nc3ccccc23)cc1	> 28
CC1CC=CC(O)C1 (stereo not drawn)	> 100
O=NN(CCCl)C(=O)NC1CCSc2ccccc21 (stereo not drawn)	> 100

System: HOP-18 NSCLC
Assay: DTP human tumour cell line panel, 48 h

SMILES	TGI [µM]
COc1ccccc1C1C(C(=O)O)=C(CO)Oc2cc3c(cc21)OCO3 (stereo not drawn)	> 100
O=C(OC(=O)n1ccc2ccccc21)n1ccc2ccccc21	> 100
CC(=O)OC1CCC2(C)C3CCC4(C)C(c5ccc(=O)oc5)CC5OC54C3CCC2(O)C1 (stereo not drawn)	7.38
Cc1cc(=O)[nH]c(NN2C(Cl)C(=O)C2c2cccc(O)c2)n1 (stereo not drawn)	> 100
Cc1ccc(S(=O)(=O)Oc2cc(-c3ccccc3)nc3ccccc23)cc1	45.8
CC1CC=CC(O)C1 (stereo not drawn)	> 100
O=NN(CCCl)C(=O)NC1CCSc2ccccc21 (stereo not drawn)	> 100

System: HS 578T breast
Assay: DTP human tumour cell line panel, 48 h

SMILES	GI50 [µM]	TGI [µM]
Cc1ccc2c(n1)C(=O)c1[nH]c3ccccc3c1C2=O	2.54	7.16
C=CC(Br)(CBr)CCC(Cl)C(C)C (stereo not drawn)	–	8.01
Cc1nc(N)sc1-c1ccnc(Nc2ccc(N3CCOCC3)cc2)n1	0.603	> 100
CC(=O)Oc1cccc2c(/C=N/NC(N)=S)ncc(C)c12	–	> 73
NNC(N)Nc1ccccc1 (stereo not drawn)	–	> 100
c1ccc(N=C2SC(=NC3CCCCC3)N(C3CCCCC3)C2=Nc2ccccc2)cc1	–	> 100

System: M19-MEL melanoma
Assay: DTP human tumour cell line panel, 48 h

SMILES	TGI [µM]
COc1ccccc1C1C(C(=O)O)=C(CO)Oc2cc3c(cc21)OCO3 (stereo not drawn)	> 100
O=C(OC(=O)n1ccc2ccccc21)n1ccc2ccccc21	> 100
CC(=O)OC1CCC2(C)C3CCC4(C)C(c5ccc(=O)oc5)CC5OC54C3CCC2(O)C1 (stereo not drawn)	11.8
Cc1cc(=O)[nH]c(NN2C(Cl)C(=O)C2c2cccc(O)c2)n1 (stereo not drawn)	> 100
Cc1ccc(S(=O)(=O)Oc2cc(-c3ccccc3)nc3ccccc23)cc1	40.6
CC1CC=CC(O)C1 (stereo not drawn)	> 100
O=NN(CCCl)C(=O)NC1CCSc2ccccc21 (stereo not drawn)	> 100

System: MDA-MB-231 breast
Assay: DTP human tumour cell line panel, 48 h

SMILES	GI50 [µM]	TGI [µM]
O=[N+]([O-])c1ccc(C=C2C(Cl)=C(Cl)C(Cl)=C2Cl)cc1	3.39	> 100
Cc1ccc2c(n1)C(=O)c1[nH]c3ccccc3c1C2=O	1.85	73.6
C=CC(Br)(CBr)CCC(Cl)C(C)C (stereo not drawn)	–	2.79
Cc1nc(N)sc1-c1ccnc(Nc2ccc(N3CCOCC3)cc2)n1	3.1	> 100
CC(=O)Oc1cccc2c(/C=N/NC(N)=S)ncc(C)c12	–	25.8
NNC(N)Nc1ccccc1 (stereo not drawn)	–	> 100
c1ccc(N=C2SC(=NC3CCCCC3)N(C3CCCCC3)C2=Nc2ccccc2)cc1	–	> 100

System: NCI-H522 lung
Assay: DTP human tumour cell line panel, 48 h

SMILES	TGI [µM]	GI50 [µM]
COc1ccccc1C1C(C(=O)O)=C(CO)Oc2cc3c(cc21)OCO3 (stereo not drawn)	> 100	–
Cc1ccc2c(n1)C(=O)c1[nH]c3ccccc3c1C2=O	9.05	2.48
C=CC(Br)(CBr)CCC(Cl)C(C)C (stereo not drawn)	2.8	–
Cc1nc(N)sc1-c1ccnc(Nc2ccc(N3CCOCC3)cc2)n1	87.5	1.41
CC(=O)Oc1cccc2c(/C=N/NC(N)=S)ncc(C)c12	32.5	–
CC(=O)OC1CCC2(C)C3CCC4(C)C(c5ccc(=O)oc5)CC5OC54C3CCC2(O)C1 (stereo not drawn)	2.04	–
Cc1ccc(S(=O)(=O)Oc2cc(-c3ccccc3)nc3ccccc23)cc1	3.7	–
NNC(N)Nc1ccccc1 (stereo not drawn)	> 100	–
CC1CC=CC(O)C1 (stereo not drawn)	> 100	–
c1ccc(N=C2SC(=NC3CCCCC3)N(C3CCCCC3)C2=Nc2ccccc2)cc1	> 100	–
O=NN(CCCl)C(=O)NC1CCSc2ccccc21 (stereo not drawn)	> 100	–

System: NCI/ADR-RES ovarian
Assay: DTP human tumour cell line panel, 48 h

SMILES	GI50 [µM]	TGI [µM]
O=[N+]([O-])c1ccc(C=C2C(Cl)=C(Cl)C(Cl)=C2Cl)cc1	3.05	17.2
Cc1ccc2c(n1)C(=O)c1[nH]c3ccccc3c1C2=O	2.28	9.29
O=C(OC(=O)n1ccc2ccccc21)n1ccc2ccccc21	–	> 100
Cc1nc(N)sc1-c1ccnc(Nc2ccc(N3CCOCC3)cc2)n1	3.43	> 100
CC(=O)Oc1cccc2c(/C=N/NC(N)=S)ncc(C)c12	–	9.47
CC(=O)OC1CCC2(C)C3CCC4(C)C(c5ccc(=O)oc5)CC5OC54C3CCC2(O)C1 (stereo not drawn)	–	6.99
Cc1ccc(S(=O)(=O)Oc2cc(-c3ccccc3)nc3ccccc23)cc1	–	11.6
NNC(N)Nc1ccccc1 (stereo not drawn)	–	> 100
CC1CC=CC(O)C1 (stereo not drawn)	–	> 100
c1ccc(N=C2SC(=NC3CCCCC3)N(C3CCCCC3)C2=Nc2ccccc2)cc1	–	> 100
O=NN(CCCl)C(=O)NC1CCSc2ccccc21 (stereo not drawn)	–	> 100

System: SNB-78 CNS
Assay: DTP human tumour cell line panel, 48 h

SMILES	TGI [µM]
COc1ccccc1C1C(C(=O)O)=C(CO)Oc2cc3c(cc21)OCO3 (stereo not drawn)	> 100
O=C(OC(=O)n1ccc2ccccc21)n1ccc2ccccc21	> 100
CC(=O)OC1CCC2(C)C3CCC4(C)C(c5ccc(=O)oc5)CC5OC54C3CCC2(O)C1 (stereo not drawn)	12
Cc1cc(=O)[nH]c(NN2C(Cl)C(=O)C2c2cccc(O)c2)n1 (stereo not drawn)	> 100
Cc1ccc(S(=O)(=O)Oc2cc(-c3ccccc3)nc3ccccc23)cc1	50.6
CC1CC=CC(O)C1 (stereo not drawn)	> 100
O=NN(CCCl)C(=O)NC1CCSc2ccccc21 (stereo not drawn)	> 100

System: TK-10 renal
Assay: DTP human tumour cell line panel, 48 h

SMILES	GI50 [µM]	TGI [µM]
O=[N+]([O-])c1ccc(C=C2C(Cl)=C(Cl)C(Cl)=C2Cl)cc1	2.41	7.58
COc1ccccc1C1C(C(=O)O)=C(CO)Oc2cc3c(cc21)OCO3 (stereo not drawn)	–	> 100
Cc1ccc2c(n1)C(=O)c1[nH]c3ccccc3c1C2=O	12	> 100
C=CC(Br)(CBr)CCC(Cl)C(C)C (stereo not drawn)	–	3.5
Cc1nc(N)sc1-c1ccnc(Nc2ccc(N3CCOCC3)cc2)n1	1.06	8.14
CC(=O)Oc1cccc2c(/C=N/NC(N)=S)ncc(C)c12	–	22
Cc1cc(=O)[nH]c(NN2C(Cl)C(=O)C2c2cccc(O)c2)n1 (stereo not drawn)	–	> 100
NNC(N)Nc1ccccc1 (stereo not drawn)	–	> 100

System: UACC-257 melanoma
Assay: DTP human tumour cell line panel, 48 h

SMILES	GI50 [µM]	TGI [µM]
Cc1ccc2c(n1)C(=O)c1[nH]c3ccccc3c1C2=O	0.513	2.05
O=C(OC(=O)n1ccc2ccccc21)n1ccc2ccccc21	–	> 100
C=CC(Br)(CBr)CCC(Cl)C(C)C (stereo not drawn)	–	5.97
Cc1nc(N)sc1-c1ccnc(Nc2ccc(N3CCOCC3)cc2)n1	–	> 100
CC(=O)Oc1cccc2c(/C=N/NC(N)=S)ncc(C)c12	–	> 41.2
CC(=O)OC1CCC2(C)C3CCC4(C)C(c5ccc(=O)oc5)CC5OC54C3CCC2(O)C1 (stereo not drawn)	–	19.5
Cc1cc(=O)[nH]c(NN2C(Cl)C(=O)C2c2cccc(O)c2)n1 (stereo not drawn)	–	> 100
Cc1ccc(S(=O)(=O)Oc2cc(-c3ccccc3)nc3ccccc23)cc1	–	52.2
NNC(N)Nc1ccccc1 (stereo not drawn)	–	> 100
CC1CC=CC(O)C1 (stereo not drawn)	–	> 100
O=NN(CCCl)C(=O)NC1CCSc2ccccc21 (stereo not drawn)	–	> 100
